Reference: patent US7338958B2, “Sulfoximine-substituted pyrimidines as CDK-and/or VEGF inhibitors, their production and use as pharmaceutical agents” (Schering AG, priority 2003, dated 2008)
Counter-ions that a name gives are not always drawn.

Legend:
[1] = target: T1, CDK1/CycB (Homo sapiens, UniProt P06493); experiment: CDK1/CycB Kinase Assay; assay type: biochemical; conditions: histone IIIS substrate, 33P-ATP, 15 minutes at 22° C.
T1 construct: GST; purchased ProQinase GmbH, Freiburg; host or cells: baculovirus-infected insect cells (Sf9)

[2] = test system: MCF7, hormone-independent human breast cancer cells; experiment: Proliferation assay, MCF7; assay type: cell-based; conditions: MCF7, 96 h, 4 days incubation, crystal violet
Procedure, shortened: (§1)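 Cells seeded ~5000/well, treated after 24 h with 0.01-30 μM compound (0.5% DMSO) for 4 days. Glutaraldehyde-fixed cells stained with crystal violet, absorbance at 595 nm; growth expressed as percent, normalized to zero-point plate (0%) and untreated cells (100%).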

[3] = target: T2, VEGF receptor tyrosine kinase-2 (Homo sapiens, UniProt P35968); experiment: VEGF Receptor-2 Kinase Assay; assay type: biochemical; conditions: poly-(Glu4Tyr) substrate, 33P-ATP, 10 minutes at 22° C.; read-out: VEGF-R2 IC50
T2 construct: GST; made in house; host or cells: baculovirus-infected insect cells (Sf9)

[4] = target: T3, CDK2/CycE (Homo sapiens, UniProt P24941); experiment: CDK2/CycE Kinase Assay; assay type: biochemical; conditions: histone IIIS substrate, 33P-ATP, 15 minutes at 22° C.
T3 construct: GST; purchased ProQinase GmbH, Freiburg; host or cells: baculovirus-infected insect cells (Sf9)
Procedure, shortened: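 Recombinant GST-tagged CDK2/CycE from Sf9 cells (50 ng/point) was incubated with compound (0.01-100 μM) for 15 min at 22° C, pH 8.0, with 0.5 μM ATP plus ^33P-γ-ATP and histone IIIS as substrate, in 12.5% DMSO. Incorporated ^33P was counted after filter binding and washing.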

[5] = test system: NCI-H460, human non-small-cell lung cancer cells; experiment: Proliferation assay, H460; assay type: cell-based; conditions: NCI-H460, 96 h, 4 days incubation, crystal violet
Excerpt: (§2) Cultivated human tumor cells (MCF7, hormone-independent human breast cancer cells, related to ATCC HTB22; NCI-H460, human non-small-cell lung cancer cells, ATCC HTB-177, HCT 116, human colon cancer cells, ATCC CCL-247; DU 145, hormone-independent human prostate cancer cells, ATCC HTB-81; MaTu-MDR, hormone-independent, multiple pharmaceutical agent-resistant human breast cancer cells, EPO-GmbH, Berlin) were flattened out at a density of about 5000 cells/measuring point, depending on the growth rate of the respective cells, in a 96-well multititer plate in 200 μl of the corresponding growth medium. After 24 hours, the cells of one plate (zero-point plate) were colored with crystal violet (see below), while the medium of the other plates was replaced by fresh culture medium (200 μl), to which the test substances were added in various concentrations (0 μm, as well as in the range of 0.01-30 μm; the final concentration of the solvent dimethyl sulfoxide was 0.5%). The cells were incubated for 4 days in the presence of test substances. The cell proliferation was determined by coloring the cells with crystal violet: the cells were fixed by adding 20 μl/measuring point of an 11% glutaric aldehyde solution for 15 minutes at room temperature. After three washing cycles of the fixed cells with water, the plates were dried at room temperature. The cells were colored by adding 100 μl/measuring point of a 0.1% crystal violet solution (the pH was set at 3 by adding acetic acid). After three washing cycles of the colored cells with water, the plates were dried at room temperature. The dye was dissolved by adding 100 μl/measuring point of a 10% acetic acid solution. The extinction was determined by photometry at a wavelength of 595 nm. The change of cell growth, in percent, was calculated by normalization of the measured values to the extinction values of the zero-point plate (=0%) and the extinction of the untreated (0 μm) cells (=100%).

[6] = test system: MaTu-ADR; experiment: Proliferation assay, MaTu-ADR; assay type: cell-based; conditions: Homo sapiens, 96 h, MaTu-ADR cells, 4 days incubation, crystal violet
Excerpt: as §2

[7] = test system: DU 145, hormone-independent human prostate cancer cells; experiment: Proliferation assay, DU145; assay type: cell-based; conditions: DU-145, 96 h, 4 days incubation, crystal violet
Procedure, shortened: as §1

[8] = test system: HCT 116, human colon cancer cells; experiment: Proliferation assay, HCT116; assay type: cell-based; conditions: HCT-116, 96 h, 4 days incubation, crystal violet
Excerpt: as §2

T1 sequence (P06493 whole entry): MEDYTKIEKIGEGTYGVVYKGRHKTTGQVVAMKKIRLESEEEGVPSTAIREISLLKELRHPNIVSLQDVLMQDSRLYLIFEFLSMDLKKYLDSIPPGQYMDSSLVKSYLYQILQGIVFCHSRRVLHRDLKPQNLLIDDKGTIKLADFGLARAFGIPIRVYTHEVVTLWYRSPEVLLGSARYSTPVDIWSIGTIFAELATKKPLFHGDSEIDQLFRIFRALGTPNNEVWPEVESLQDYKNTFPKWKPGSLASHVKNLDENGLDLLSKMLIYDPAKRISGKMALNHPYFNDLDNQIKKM
T1 sequence (P14635 whole entry partner): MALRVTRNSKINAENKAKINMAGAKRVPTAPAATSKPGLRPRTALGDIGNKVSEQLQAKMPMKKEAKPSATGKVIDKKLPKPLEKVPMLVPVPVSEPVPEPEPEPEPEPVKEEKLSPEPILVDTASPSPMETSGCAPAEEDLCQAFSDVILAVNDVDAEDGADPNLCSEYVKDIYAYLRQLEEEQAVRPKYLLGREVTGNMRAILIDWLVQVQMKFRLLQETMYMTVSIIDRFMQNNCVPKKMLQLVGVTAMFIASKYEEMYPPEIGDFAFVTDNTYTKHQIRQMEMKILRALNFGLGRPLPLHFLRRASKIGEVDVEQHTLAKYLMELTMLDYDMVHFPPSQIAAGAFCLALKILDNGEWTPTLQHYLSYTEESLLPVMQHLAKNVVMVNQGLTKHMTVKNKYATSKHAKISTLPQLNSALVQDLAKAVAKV
T2 sequence (P35968 20-1356): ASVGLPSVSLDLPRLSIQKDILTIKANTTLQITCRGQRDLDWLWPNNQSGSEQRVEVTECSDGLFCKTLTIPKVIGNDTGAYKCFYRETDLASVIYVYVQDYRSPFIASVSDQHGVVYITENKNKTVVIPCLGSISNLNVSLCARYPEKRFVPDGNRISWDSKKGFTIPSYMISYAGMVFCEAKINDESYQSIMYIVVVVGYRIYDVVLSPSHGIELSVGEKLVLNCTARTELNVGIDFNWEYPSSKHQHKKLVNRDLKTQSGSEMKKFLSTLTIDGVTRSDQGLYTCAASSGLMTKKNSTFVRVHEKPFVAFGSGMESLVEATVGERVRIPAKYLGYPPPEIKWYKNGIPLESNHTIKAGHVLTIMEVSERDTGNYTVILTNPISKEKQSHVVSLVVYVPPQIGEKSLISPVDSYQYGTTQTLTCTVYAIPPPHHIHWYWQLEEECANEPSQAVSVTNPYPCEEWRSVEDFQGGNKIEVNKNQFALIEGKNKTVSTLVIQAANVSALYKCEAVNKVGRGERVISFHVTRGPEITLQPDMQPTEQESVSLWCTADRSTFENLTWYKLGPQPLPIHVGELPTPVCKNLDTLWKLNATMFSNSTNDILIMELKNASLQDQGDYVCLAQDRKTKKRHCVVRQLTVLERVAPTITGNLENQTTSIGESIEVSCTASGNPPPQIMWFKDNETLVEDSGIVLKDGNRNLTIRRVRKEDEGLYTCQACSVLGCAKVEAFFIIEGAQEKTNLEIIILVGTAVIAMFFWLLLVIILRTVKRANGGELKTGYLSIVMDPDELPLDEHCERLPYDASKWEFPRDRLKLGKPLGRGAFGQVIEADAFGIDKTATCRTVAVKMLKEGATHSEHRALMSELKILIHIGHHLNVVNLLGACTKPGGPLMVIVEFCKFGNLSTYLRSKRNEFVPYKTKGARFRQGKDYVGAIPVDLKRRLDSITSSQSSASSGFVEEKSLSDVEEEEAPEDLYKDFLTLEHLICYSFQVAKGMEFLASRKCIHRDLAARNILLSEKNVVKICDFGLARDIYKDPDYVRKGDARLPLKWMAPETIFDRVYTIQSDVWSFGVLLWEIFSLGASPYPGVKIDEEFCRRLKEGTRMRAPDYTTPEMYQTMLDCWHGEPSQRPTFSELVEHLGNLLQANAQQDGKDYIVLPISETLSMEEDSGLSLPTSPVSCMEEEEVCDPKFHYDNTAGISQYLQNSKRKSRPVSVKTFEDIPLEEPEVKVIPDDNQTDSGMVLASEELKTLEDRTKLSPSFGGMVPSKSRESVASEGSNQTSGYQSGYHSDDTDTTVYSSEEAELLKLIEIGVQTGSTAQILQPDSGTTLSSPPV

| melting point | IC50 [1] | IC50 [2] | IC50 [3] | IC50 [4] | IC50 [5] | IC50 [7] | IC50 [8] | Compound | IC50 [6] |
| --- | --- | --- | --- | --- | --- | --- | --- | --- | --- |
| 175 to 183 °C | 97 nM | 400 nM | 120 nM | 33 nM | – | – | – | CCC(C)Sc1nc(Nc2ccc(S(C)(=N)=O)cc2)ncc1Br (racemic) [Example 3.1, (RS)-S-[4-({5-bromo-4-[(RS)-(1-methyl-propyl)sulfanyl]pyrimidin-2-yl}amino)phenyl]-S-methyl sulfoximide] | – |
| 201 to 202 °C | 19 nM | 100 nM | – | – | < 100 nM | < 100 nM | – | CC(Sc1nc(Nc2ccc(S(C)(=N)=O)cc2)ncc1Br)C(C)(C)O (racemic) [Example 3.7, (RS)-S-[4-({5-bromo-4-[(RS)-(2-hydroxy-1,2-dimethylpropyl)sulfanyl]pyrimidin-2-yl}amino)phenyl]-S-methyl sulfoximide] | < 100 nM |
| 218 °C (dec.) | – | 400 nM | > 1000 nM | 27 nM | 300 nM | 300 nM | – | CCC(Sc1nc(Nc2ccc(S(C)(=N)=O)cc2)ncc1Br)C(C)(C)O (racemic) [Example 3.8, (RS)-S-[4-({5-bromo-4-[(RS)-(1-ethyl-2-hydroxy-2-methylpropyl)sulfanyl]pyrimidin-2-yl}amino)phenyl]-S-methyl sulfoximide] | 190 nM |
| 175 to 180 °C | 49 nM | 500 nM | 170 nM | 16 nM | – | – | – | CCC(CO)Sc1nc(Nc2ccc(S(C)(=N)=O)cc2)ncc1Br (racemic) [Example 3.0, (RS)-S-[4-({5-bromo-4-[(RS)-(1-hydroxymethyl-propyl)sulfanyl]pyrimidin-2-yl}amino)phenyl]-S-methyl sulfoximide] | – |
| 192 to 194 °C | – | – | – | – | – | – | – | CCC(Sc1nc(Nc2ccc(S(C)(=N)=O)cc2)ncc1Br)C(C)=O (racemic) (as salt: sodium) [Example 3.3, (RS)-S-[4-({4-[(RS)-(1-acetylpropyl)sulfanyl]-5-bromopyrimidin-2-yl}amino)phenyl]-S-methyl sulfoximide] | – |
| – | – | < 100 nM | – | – | – | 200 nM | 100 nM | C[C@@H](Nc1nc(Nc2ccc(S(C)(=N)=O)cc2)ncc1Br)C(C)(C)O (single isomer, unassigned) [Example 1.3] | 170 nM |
| – | 13 nM | 60 nM | 340 nM | – | 60 nM | 100 nM | 50 nM | C[C@@H](O)[C@@H](C)Oc1nc(Nc2ccc(S(C)(=N)=O)cc2)ncc1Br (mixture of isomers) [Example 1.4, (RS)-S-[4-({5-bromo-4-[(1R,2R)-2-hydroxy-1-methylpropoxy]pyrimidin-2-yl}amino)phenyl]-S-methyl sulfoximide] | 80 nM |
| 194 to 196 °C | – | – | – | – | – | – | – | C[C@@H](Nc1nc(Nc2ccc(S(=N)(=O)C3CCCC3)cc2)ncc1Br)C(C)(C)O (mixture of isomers) [Example 1.11, (RS)-S-[4-({5-bromo-4-[(R)-(2-hydroxy-1,2-dimethylpropyl)amino]pyrimidin-2-yl}amino)phenyl]-S-cyclopentylsulfoximide] | – |
| 218 to 220 °C | 18 nM | 400 nM | – | 4 nM | – | – | – | CC(CO)Sc1nc(Nc2ccc(S(C)(=N)=O)cc2)ncc1Br (racemic) [Example 3.10, (RS)-S-[4-({5-bromo-4-[(RS)-(2-hydroxy-1-methyl-ethyl)sulfanyl]pyrimidin-2-yl}amino)phenyl]-S-methyl sulfoximide] | – |
| – | 170 nM | 180 nM | 130 nM | 130 nM | 200 nM | 190 nM | – | C[C@@H](O)[C@@H](C)Nc1nc(Nc2ccc(S(=O)(CCO)=NS(=O)(=O)CC[Si](C)(C)C)cc2)ncc1Br (mixture of isomers) [Example 1.16, (RS)-S-[4-({5-Bromo-4-[(1R,2R)-(2-hydroxy-1-methyl-propyl)amino]pyrimidin-2-yl}amino)phenyl]-S-(2-hydroxyethyl)-N-[2-(trimethylsilyl)ethylsulfonyl]sulfoximide] | 4000 nM |
| – | 17 nM | 120 nM | 150 nM | 8 nM | 50 nM | 60 nM | – | CC(O)C(C)Sc1nc(Nc2ccc(S(C)(=N)=O)cc2)ncc1Br (racemic) [Example 3.5, (RS)-S-[4-({5-bromo-4-[(RS,RS)-(2-hydroxy-1-methylpropyl)sulfanyl]pyrimidin-2-yl}amino)phenyl]-S-methyl sulfoximide] | 30 nM |
| – | 27 nM | 200 nM | 140 nM | 9 nM | 180 nM | 300 nM | – | CCOC(=O)N=S(C)(=O)c1ccc(Nc2ncc(Br)c(N[C@H](C)C(C)(C)O)n2)cc1 (mixture of isomers) [Example 1.31, (RS)-S-[4-({5-bromo-4-[(R)-(2-hydroxy-1,2-dimethylpropyl)amino]pyrimidin-2-yl}amino)phenyl]-N-(ethoxycarbonyl)-S-methyl sulfoximide] | 700 nM |
| – | 21 nM | 110 nM | 110 nM | 14 nM | 170 nM | 180 nM | – | CCOC(=O)N=S(C)(=O)c1ccc(Nc2ncc(Br)c(O[C@H](C)[C@@H](C)O)n2)cc1 (mixture of isomers) [Example 1.40, (RS)-S-[4-({5-bromo-4-[(1R,2R)-2-hydroxy-1-methylpropoxy]pyrimidin-2-yl}amino)phenyl]-N-(ethoxycarbonyl)-S-methyl sulfoximide] | 300 nM |
| – | 63 nM | 170 nM | 57 nM | 48 nM | < 100 nM | 160 nM | – | CCOC(=O)N=S(C)(=O)c1ccc(Nc2ncc(Br)c(N[C@H](C)C(C)(C)O)n2)cc1C (mixture of isomers) [Example 1.37, (RS)-S-[4-({5-bromo-4-[(R)-(2-hydroxy-1,2-dimethylpropyl)amino]pyrimidin-2-yl}amino)-2-methylphenyl]-N-(ethoxycarbonyl)-S-methyl sulfoximide] | 300 nM |

| Compound | melting point | IC50 [1] | IC50 [2] | IC50 [3] | IC50 [4] | IC50 [5] | IC50 [7] | IC50 [8] | IC50 [6] |
| --- | --- | --- | --- | --- | --- | --- | --- | --- | --- |
| C[C@H](CO)Nc1nc(Nc2ccc(S(=O)(CC3CC3)=NS(=O)(=O)CC[Si](C)(C)C)cc2)ncc1Br (mixture of isomers) [Example 1.7, (RS)-S-[4-({5-bromo-4-[(R)-(2-hydroxy-1-methylethyl)amino]pyrimidin-2-yl}amino)phenyl]-S-(cyclopropylmethyl)-N-[2-(trimethylsilyl)ethylsulfonyl]sulfoximide] | 195 °C (dec.) | – | – | – | – | – | – | – | – |
| C[C@@H](Nc1nc(Nc2ccc(S(=O)(=NS(=O)(=O)CC[Si](C)(C)C)C3CCCC3)cc2)ncc1Br)C(C)(C)O (mixture of isomers) [Example 1.10, (RS)-S-[4-({5-bromo-4-[(R)-(2-hydroxy-1,2-dimethylpropyl)amino]pyrimidin-2-yl}amino)phenyl]-S-cyclopentyl-N-[2-(trimethylsilyl)ethylsulfonyl]sulfoximide] | 200 to 201 °C | – | – | – | – | – | – | – | – |
| C[C@H](CO)Nc1nc(Nc2ccc(S(C)(=O)=NS(=O)(=O)CC[Si](C)(C)C)cc2)ncc1Br (mixture of isomers) [Example 2.1, (RS)-S-[4-({5-bromo-4-[(R)-(2-hydroxy-1-methylethyl)amino]pyrimidin-2-yl}amino)phenyl]-S-methyl-N-[2-(trimethylsilyl)ethylsulfonyl]sulfoximide] | 194 to 197 °C | – | – | – | – | – | – | – | – |
